Laboratory results: patent publication US20190321324A1, “QUATERNARY AMINE ANTIBIOTIC THERAPEUTICS” (BOARD OF REGENTS, THE UNIVERSITY OF TEXAS SYSTEM, priority 2016, published 2019)
≈ marks a conversion by molar mass, not a printed value. Structures can show the parent of a compound that is named as a salt. Where two headings read alike, the source gives them in different places.

Columns and labels:
A. baumannii = A. baumannii MIC of clinically used QACs; type: cell-based, Acinetobacter baumannii; conditions: for MIC: unit assumed; for Effect of ribosomal mutations on MIC (in words): BAC resistant mutants, S11 and L24 (Mutants 1 and 4); for Prevention of growth (in words): antibiotic resistant and susceptible A. baumannii
Description: (§1) The antimicrobial activity of three QACs that have been approved for human use; Bretylium tosylate, Clofilium tosylate, and Otilonium bromide, were tested (FIG. 1). The length of the hydrocarbon tail on BAC is known to strongly influence its behavior. Clofilium tosylate and Otilonium bromide both have hydrocarbon tails that are hypothesized to allow cell envelope penetration. […] Similar activity was determine for these three compounds in S. aureus (Table 2)
BAC, Bretylium tosylate, Clofilium tosylate, and Otilonium bromide are all QACs but with different structures. […] Bretylium tosylate, Clofilium tosylate, and Otilonium bromide were tested on BAC resistant mutants representing mutations in ribosomal proteins S11, L23, L24 and the UTR of the ribosomal operon. […] The MIC to Otilonium bromide was not affected in these mutants.

S. aureus = S. aureus MIC of clinically used QACs; type: cell-based, Staphylococcus aureus; conditions: unit assumed
Description: as §1

C. difficile = C. difficile minimal bactericidal assay (MBC); type: cell-based, Clostridium difficile; conditions: Clostridioides difficile, 20 h, 20 h at 37° C., anaerobic
Description: Activity of Otilonium bromide was also tested using two strains of C. difficile, 43255 and 630 (MDR). The minimal bactericidal assay was performed using 5×10^5 C. difficile bacteria where incubated with vancomycin or OB at the indicated concentrations for 20 h at 37° C. in an anaerobic chamber. The total volume per well in BHIS medium was 100 μl and 5 μL was spotted on RCM medium and plates were incubated for 24 h. The MBC is identified as the concentration of compound the reduced cfu to single or no numbers.

A. baumannii lon mutant = experiment: Sensitivity of A. baumannii lon mutant to Otilonium bromide treatment; type: cell-based, Acinetobacter baumannii

Compound	MIC (A. baumannii; BAC resistant Mutant 7 (19))	MIC (A. baumannii; BAC resistant Mutant 8 (3))	Effect of ribosomal mutations on MIC (in words) (A. baumannii)	Prevention of growth (in words) (A. baumannii)	MIC (A. baumannii; strain 17978)	MIC (A. baumannii; strain AYE (MDR))	MIC (S. aureus; strain MU50 (MDR))	MIC (S. aureus; strain Newman)	MBC (C. difficile; strain 630 (MDR))	MBC (C. difficile; strain 43255)	Sensitivity of lon mutant (in words) (A. baumannii lon mutant)	MIC (A. baumannii; BAC resistant Mutant 1 (20))	MIC (A. baumannii; BAC resistant Mutant 4 (23))	MIC compared with BAC (A. baumannii; strain 17978)	MBC (C. difficile; strain 630 (MDR), read-out: MBC)	MBC (C. difficile; strain 43255, read-out: MBC)
Clofilium tosylate	256 µg/mL	256 µg/mL	increased resistance	prevent growth	128 µg/mL	128 µg/mL	32 µg/mL	16 µg/mL								
CN[C@H](CC(C)C)C(=O)N[C@H]1C(=O)N[C@@H](CC(N)=O)C(=O)N[C@H]2C(=O)N[C@H]3C(=O)N[C@H](C(=O)N[C@H](C(=O)O)c4cc(O)cc(O)c4-c4cc3ccc4O)[C@H](O)c3ccc(c(Cl)c3)Oc3cc2cc(c3O[C@@H]2O[C@H](CO)[C@@H](O)[C@H](O)[C@H]2O[C@H]2C[C@](C)(N)[C@H](O)[C@H](C)O2)Oc2ccc(cc2Cl)[C@H]1O [Vancomycin]									~2 µg/mL (≈ 1.38 µM)	1 µg/mL (≈ 0.69 µM)						
CCCCCCCCOc1ccccc1C(=O)Nc1ccc(C(=O)OCC[N+](C)(CC)CC)cc1.[Br-] [Otilonium bromide]	16 µg/mL	16 µg/mL	not affected	prevent growth	16 µg/mL	16 µg/mL	4 µg/mL	2 µg/mL			highly sensitized	16 µg/mL	16 µg/mL	equivalent to that of BAC	2 µg/mL	1 µg/mL
CC[N+](C)(C)Cc1ccccc1Br [Bertylium tosylate, Bretylium tosylate]	> 256 µg/mL	> 256 µg/mL		did not show activity	> 256 µg/mL	> 256 µg/mL	> 256 µg/mL	> 256 µg/mL				> 256 µg/mL	> 256 µg/mL			
